17 compounds from ChEMBL document CHEMBL2390846, “Small-molecule pyrimidine inhibitors of the cdc2-like (Clk) and dual specificity tyrosine phosphorylation-regulated (Dyrk) kinases: development of chemical probe ML315” (Bioorg Med Chem Lett, 2013) can be followed below.

Data set [1] deals with T1, Dual specificity tyrosine-phosphorylation-regulated kinase 1A (Homo sapiens, UniProt Q13627).
The target in data set [2] is T2, Dual specificity protein kinase CLK4 (Homo sapiens, UniProt Q9HAZ1). Kind of data set: Inhibition of CLK4 (unknown origin) by bioluminescence assay. Conditions: read-out: IC50.
Data set [3] deals with Dual specificity protein kinase CLK1 (Homo sapiens, UniProt P49759).
Data set [4] addresses Dual specificity protein kinase CLK2 (Homo sapiens, UniProt P49760).
Data set [5] has as its target Dual specificity tyrosine-phosphorylation-regulated kinase 1B (Homo sapiens, UniProt Q9Y463).
The target of data set [6] is Dual specificity protein kinase CLK3 (Homo sapiens, UniProt P49761).
For data set [7], the target named is T1, Dual specificity tyrosine-phosphorylation-regulated kinase 1A. Kind of data set: Inhibition of DYRK1A (unknown origin) by bioluminescence assay. Conditions: read-out: IC50.
Data set [8] has as its target T2, Dual specificity protein kinase CLK4.
Data set [9] can be described thus: Permeability of the compound in aqueous buffer at donor compartment pH 5.0 and acceptor compartment pH 7.4 by PAMPA. The data set is classed as ADME. A general note: PAMPA measures passive passage across an artificial lipid membrane.
A short description of data set [10]: Plasma protein binding in human at 1 uM. Type of data set: ADME, cell-free. Conditions: read-out: PPB (converted).
Data set [11] in a line: Hepatotoxicity against human Fa2N-4 cells. The data set is classed as toxicity, cell-based. The settings on record: read-out: LC50 (the source's name).
Data set [12] in a line: Permeability of the compound in aqueous buffer at donor compartment pH 7.4 and acceptor compartment pH 7.4 by PAMPA. The data set is classed as ADME.
A short description of data set [13]: Permeability of the compound in aqueous buffer at donor compartment pH 6.2 and acceptor compartment pH 7.4 by PAMPA. The data set is classed as ADME.
The nature of data set [14]: Solubility of the compound in assay media at pH 7.5. Type of data set: physicochemical.
A short description of data set [15]: Metabolic stability in human liver microsomes assessed as compound remaining at 1 hr. Conditions: read-out: Stability. The data set is classed as ADME, Microsome. Background: Liver microsomes are vesicles of endoplasmic reticulum, rich in cytochrome P450 enzymes.
Data set [16] in a line: Metabolic stability in human plasma assessed as compound remaining at 3 hrs. Type of data set: ADME, cell-free. The settings on record: read-out: Stability.
Data set [17] in a line: Metabolic stability in mouse liver microsomes assessed as compound remaining at 1 hr. Type of data set: ADME, Microsome. Conditions: read-out: Stability.
The target in another data set is hERG (KCNH2) (Homo sapiens, UniProt Q12809). Kind of data set: Inhibition of human ERG at 10 uM relative to control.
Data set [18] can be described thus: Plasma protein binding in mouse at 10 uM. Type of data set: ADME, cell-free. The settings on record: read-out: PPB (converted).
Data set [19] is described as follows: Aqueous solubility of the compound in PBS at pH 7.4. The data set is classed as physicochemical.
Data set [20] can be described thus: Plasma protein binding in mouse at 1 uM. Conditions: read-out: PPB (converted). The data set is classed as ADME, cell-free.
A short description of data set [21]: Metabolic stability in mouse plasma assessed as compound remaining at 3 hrs. Type of data set: ADME, cell-free. Conditions: read-out: Stability.
Data set [22] has as its target L-type calcium channel, benzothiazepine binding site (Rattus norvegicus, UniProt P22002+P27732+Q02485). Kind of data set: Inhibition of rat L-type calcium channel benzothiazepine binding site at 10 uM relative to control.
Data set [23] is described as follows: Plasma protein binding in human at 10 uM. Type of data set: ADME, cell-free. Conditions: read-out: PPB (converted).

The IC50 is the concentration that inhibits the measured activity by half. What is called solubility is the concentration that dissolves in the medium under given conditions. A higher solubility goes with much dissolved substance. By inhibition is commonly meant the percentage by which the read-out fell short of the control.

The structures appear in SMILES notation. ≈ marks a conversion by molar mass, not a printed value.

T2 sequence (Q9HAZ1 whole entry): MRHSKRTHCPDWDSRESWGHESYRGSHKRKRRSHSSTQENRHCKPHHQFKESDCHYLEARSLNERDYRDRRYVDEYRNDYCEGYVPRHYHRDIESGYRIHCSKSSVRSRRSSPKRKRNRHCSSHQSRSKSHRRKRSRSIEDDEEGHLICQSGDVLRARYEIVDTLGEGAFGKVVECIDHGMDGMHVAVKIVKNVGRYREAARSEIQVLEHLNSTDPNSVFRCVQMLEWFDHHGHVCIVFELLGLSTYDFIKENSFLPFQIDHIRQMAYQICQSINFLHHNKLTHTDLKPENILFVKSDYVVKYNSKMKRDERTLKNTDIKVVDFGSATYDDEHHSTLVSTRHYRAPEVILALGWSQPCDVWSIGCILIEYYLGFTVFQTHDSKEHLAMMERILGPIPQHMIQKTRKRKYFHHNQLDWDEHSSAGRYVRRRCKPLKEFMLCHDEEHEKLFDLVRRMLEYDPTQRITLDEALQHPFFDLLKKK
Dual specificity protein kinase CLK2, sequence (P49760 whole entry): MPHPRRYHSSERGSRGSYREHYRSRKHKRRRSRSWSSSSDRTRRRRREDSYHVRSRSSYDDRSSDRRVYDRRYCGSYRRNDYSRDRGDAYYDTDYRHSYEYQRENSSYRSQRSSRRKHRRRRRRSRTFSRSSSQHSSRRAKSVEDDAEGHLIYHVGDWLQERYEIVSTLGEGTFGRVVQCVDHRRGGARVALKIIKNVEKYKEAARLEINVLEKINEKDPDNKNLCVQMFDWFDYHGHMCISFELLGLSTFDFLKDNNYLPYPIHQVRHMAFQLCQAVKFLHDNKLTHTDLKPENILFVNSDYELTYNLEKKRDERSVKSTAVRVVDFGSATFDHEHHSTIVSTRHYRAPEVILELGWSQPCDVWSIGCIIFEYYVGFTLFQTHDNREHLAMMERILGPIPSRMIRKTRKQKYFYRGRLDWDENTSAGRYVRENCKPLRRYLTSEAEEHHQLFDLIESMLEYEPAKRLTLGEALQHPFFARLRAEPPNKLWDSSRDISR
Dual specificity protein kinase CLK3, sequence (P49761 whole entry): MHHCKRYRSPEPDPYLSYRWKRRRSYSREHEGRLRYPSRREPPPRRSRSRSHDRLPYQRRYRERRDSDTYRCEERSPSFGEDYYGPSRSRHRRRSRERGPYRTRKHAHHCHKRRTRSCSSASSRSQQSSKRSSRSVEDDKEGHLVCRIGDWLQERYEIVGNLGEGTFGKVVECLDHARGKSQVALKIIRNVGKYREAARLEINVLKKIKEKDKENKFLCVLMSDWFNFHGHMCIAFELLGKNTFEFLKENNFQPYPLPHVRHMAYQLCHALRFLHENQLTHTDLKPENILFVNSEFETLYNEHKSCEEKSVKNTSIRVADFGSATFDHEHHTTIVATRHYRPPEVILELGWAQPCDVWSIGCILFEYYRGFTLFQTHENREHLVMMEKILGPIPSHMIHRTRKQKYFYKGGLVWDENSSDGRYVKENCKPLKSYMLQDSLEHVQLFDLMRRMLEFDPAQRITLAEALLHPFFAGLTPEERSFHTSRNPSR
Dual specificity tyrosine-phosphorylation-regulated kinase 1B, sequence (Q9Y463 whole entry): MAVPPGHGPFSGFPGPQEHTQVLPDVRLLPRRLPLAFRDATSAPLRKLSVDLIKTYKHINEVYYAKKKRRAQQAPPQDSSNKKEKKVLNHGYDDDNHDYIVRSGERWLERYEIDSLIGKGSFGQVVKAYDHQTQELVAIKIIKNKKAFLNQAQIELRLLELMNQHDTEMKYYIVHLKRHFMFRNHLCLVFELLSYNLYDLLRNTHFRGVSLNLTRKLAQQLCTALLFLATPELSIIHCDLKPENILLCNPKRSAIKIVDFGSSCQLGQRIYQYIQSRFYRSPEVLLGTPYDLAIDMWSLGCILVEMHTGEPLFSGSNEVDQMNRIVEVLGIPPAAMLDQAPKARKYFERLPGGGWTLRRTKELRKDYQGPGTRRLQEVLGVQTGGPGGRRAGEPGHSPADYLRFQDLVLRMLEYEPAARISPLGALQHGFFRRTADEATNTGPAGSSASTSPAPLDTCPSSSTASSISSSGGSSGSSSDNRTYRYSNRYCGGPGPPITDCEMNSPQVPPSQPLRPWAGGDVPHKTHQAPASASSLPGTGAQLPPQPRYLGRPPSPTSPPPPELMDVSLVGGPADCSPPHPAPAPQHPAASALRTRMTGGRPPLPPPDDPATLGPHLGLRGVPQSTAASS
Dual specificity protein kinase CLK1, sequence (P49759 whole entry): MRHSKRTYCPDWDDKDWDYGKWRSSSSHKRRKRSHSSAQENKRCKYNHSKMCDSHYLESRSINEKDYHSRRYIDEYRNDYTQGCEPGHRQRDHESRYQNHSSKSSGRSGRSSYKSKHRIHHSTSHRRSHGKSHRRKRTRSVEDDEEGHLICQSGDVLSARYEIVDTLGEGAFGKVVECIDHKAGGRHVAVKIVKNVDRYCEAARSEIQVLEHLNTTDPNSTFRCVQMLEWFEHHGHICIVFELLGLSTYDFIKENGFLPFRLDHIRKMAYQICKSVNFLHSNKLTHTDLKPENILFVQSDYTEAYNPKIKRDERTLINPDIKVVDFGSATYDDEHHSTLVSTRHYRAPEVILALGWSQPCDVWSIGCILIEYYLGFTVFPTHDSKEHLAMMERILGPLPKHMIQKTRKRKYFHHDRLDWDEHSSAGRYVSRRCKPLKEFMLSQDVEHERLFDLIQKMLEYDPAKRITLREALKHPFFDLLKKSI
hERG (KCNH2), sequence (Q12809 whole entry): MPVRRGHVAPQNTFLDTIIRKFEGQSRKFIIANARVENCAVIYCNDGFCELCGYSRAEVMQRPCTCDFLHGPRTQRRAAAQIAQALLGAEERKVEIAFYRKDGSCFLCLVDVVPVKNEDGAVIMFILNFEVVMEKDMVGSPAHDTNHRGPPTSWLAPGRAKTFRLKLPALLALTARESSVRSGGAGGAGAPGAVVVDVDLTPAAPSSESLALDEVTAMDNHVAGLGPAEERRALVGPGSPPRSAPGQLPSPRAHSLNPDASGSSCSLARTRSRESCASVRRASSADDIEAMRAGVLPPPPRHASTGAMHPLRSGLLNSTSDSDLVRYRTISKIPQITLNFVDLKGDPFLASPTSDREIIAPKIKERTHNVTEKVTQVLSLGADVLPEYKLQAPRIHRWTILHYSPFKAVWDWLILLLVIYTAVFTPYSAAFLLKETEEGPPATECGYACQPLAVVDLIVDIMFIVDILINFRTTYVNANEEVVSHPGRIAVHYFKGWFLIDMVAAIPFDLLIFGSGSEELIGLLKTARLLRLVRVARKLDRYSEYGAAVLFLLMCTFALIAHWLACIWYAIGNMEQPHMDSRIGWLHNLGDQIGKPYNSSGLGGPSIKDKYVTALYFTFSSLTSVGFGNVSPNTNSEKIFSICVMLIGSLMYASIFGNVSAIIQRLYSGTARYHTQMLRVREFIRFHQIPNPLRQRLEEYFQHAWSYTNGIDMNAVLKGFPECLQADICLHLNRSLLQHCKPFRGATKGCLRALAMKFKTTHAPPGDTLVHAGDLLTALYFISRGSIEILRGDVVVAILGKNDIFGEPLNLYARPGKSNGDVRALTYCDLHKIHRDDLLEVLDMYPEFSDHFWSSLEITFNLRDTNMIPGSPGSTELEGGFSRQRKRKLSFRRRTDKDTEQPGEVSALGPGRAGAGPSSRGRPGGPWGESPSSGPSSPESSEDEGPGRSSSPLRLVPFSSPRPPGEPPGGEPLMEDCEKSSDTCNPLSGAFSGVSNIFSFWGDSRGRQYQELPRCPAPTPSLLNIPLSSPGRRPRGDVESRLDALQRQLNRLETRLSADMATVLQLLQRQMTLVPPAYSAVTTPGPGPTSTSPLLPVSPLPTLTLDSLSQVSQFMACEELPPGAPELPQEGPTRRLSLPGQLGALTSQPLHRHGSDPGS

Take `FC(F)(F)c1cccc(Nc2nccc(-c3ccc4c(c3)OCO4)n2)c1`: the IC50 in data set [1] was 10 nM; in data set [2], 70 nM; in data set [3], 34 nM; in [4], 52 nM; in [5] it was 18 nM; in [6], above 10000 nM. In addition, the results for the IC50 in data set [7] and in [8] were 70 nM and 42 nM, respectively.
Turning to `c1cncc(CNc2nccc(-c3ccc4c(c3)OCO4)n2)c1`, the IC50 in [1] was 7 nM; in data set [2], 20 nM; in data set [3], 11 nM; in data set [4], 60 nM; in data set [5] it was 12 nM; in [6], 1470 nM. Also, the IC50 in data set [7] was found to be 40 nM; in data set [8] it was 16 nM.
As for `c1cncc(CNc2ccnc(-c3ccc4[nH]ncc4c3)n2)c1`, the IC50 was determined as 349 nM in [1]; 150 nM in data set [2]; 964 nM in data set [3]; 665 nM in [4]; 179 nM in data set [5]; 650 nM in data set [7]. Further, the IC50 in data set [8] stood at 574 nM.
For `c1cc(-c2ccc3c(c2)OCO3)nc(Nc2ccc3c(c2)OCO3)n1`, the IC50 in data set [1] was 25 nM; in data set [2], 120 nM; in [3] it was 180 nM; in [4], 259 nM; in data set [5], 42 nM; in [7], 130 nM. In data set [8], this compound had an IC50 of 75 nM.
Turning to `Clc1cc(Cl)cc(CNc2ncncc2-c2ccc3c(c2)OCO3)c1`, the permeability is 2220 ×10⁻⁶ cm/s in [9], 1150 ×10⁻⁶ cm/s in data set [12] and 1360 ×10⁻⁶ cm/s in data set [13]. The values for the fraction unbound at 1 µM in data set [10] and in [20] were 0.0065 and 0.0051, respectively. In addition, the CC50 in data set [11] is above 50000 nM. Further, the solubility is 1.71 µM (≈ 0.64 µg/mL) in data set [14] and 1.15 µM (≈ 0.43 µg/mL) in data set [19]. Besides, the remaining at 1 h in data set [15] was 1.3%; in [17] it was 0.54%. For the same compound, the IC50 in data set [1] was 282 nM; in data set [2], 130 nM; in data set [3], 68 nM; in data set [4], 231 nM; in data set [5], 1160 nM; in [6], above 10000 nM. For the same compound, the figures for the 50% inhibitory concentration (IC50) in data set [7] and in data set [8] were 2600 nM and 68 nM, respectively. Besides, the remaining at 3 h in data set [16] was 85.5%; in data set [21] it was 86.7%. Further, the inhibition at 10 µM against hERG (KCNH2) stood at 44%; in [22] it was 26%. Further, the fraction unbound at 10 µM in data set [18] was 0.0053; in [23] it was 0.0022.
With `Clc1ccc(CNc2nccc(-c3ccc4[nH]ncc4c3)n2)cc1Cl`, the IC50 worked out at 129 nM in [1]; 30 nM in data set [2]; 41 nM in [3]; 190 nM in data set [4]; 125 nM in [5]; 2930 nM in data set [6]. Moreover, the IC50 in data set [7] stood at 330 nM; in data set [8], 30 nM.
With `Clc1ccc(CNc2nccc(-c3ccc4c(c3)OCO4)n2)cc1Cl`, the IC50 was determined as 26 nM in data set [1]; 40 nM in [2]; 8 nM in [3]; 20 nM in [4]; 38 nM in data set [5]; 3630 nM in [6]. Also, the values for the IC50 in data set [7] and in [8] were 160 nM and 14 nM, respectively.
As for `Brc1ccc(CNc2nccc(-c3ccc4c(c3)OCO4)n2)cc1Br`, the IC50 in [1] was 79 nM; in [2], 80 nM; in data set [3], 24 nM; in data set [4], 30 nM; in data set [5], 112 nM; in data set [6] it was 3230 nM. The IC50 came out at 820 nM in [7] and 18 nM in data set [8].
As for `Clc1ccc(Nc2nccc(-c3ccc4c(c3)OCO4)n2)cc1`, the IC50 in data set [1] was 273 nM; in [2], 370 nM; in data set [3], 1260 nM; in data set [4], above 10000 nM; in data set [5] it was 884 nM; in [7] it was 520 nM. In data set [8], this compound came in with an IC50 of 5450 nM.
As for `c1cncc(CNc2nccc(-c3ccc4[nH]ncc4c3)n2)c1`, the IC50 in data set [1] was determined as 61 nM; in [2] it was 30 nM; in [3] it was 73 nM; in data set [4], 462 nM; in [5], 93 nM; in data set [6], 2660 nM. Further, the values for the IC50 in [7] and in data set [8] were 150 nM and 60 nM, respectively.
With `Clc1ccc(CNc2nccc(-c3ccc4c(c3)OCCO4)n2)cc1Cl`, the IC50 in [1] was 18 nM; in data set [2], 120 nM; in data set [3], 16 nM; in data set [4] it was 39 nM; in data set [5], 55 nM; in data set [6], above 10000 nM. Moreover, the IC50 is 210 nM in data set [7] and 13 nM in data set [8].
Turning to `COc1ccc(-c2ccnc(NCc3ccc(Cl)cc3)n2)cc1`, the IC50 was 558 nM in data set [1]; 290 nM in data set [2]; 277 nM in data set [3]; 1090 nM in [4]; 871 nM in data set [5]; 2070 nM in data set [7]. Also, the IC50 in data set [8] is 319 nM.
Turning to `COc1ccc(-c2ccnc(NCc3ccc(Cl)c(Cl)c3)n2)cc1`, the IC50 is 203 nM in data set [1]; 210 nM in data set [2]; 76 nM in [3]; 409 nM in [4]; 411 nM in data set [5]; 1160 nM in data set [7]. The same compound gave an IC50 in data set [8] of 92 nM.
On to `Clc1cc(Cl)cc(CNc2nccc(-c3ccc4c(c3)OCO4)n2)c1`, for which the half-inhibitory concentration (IC50) in [3] was 2 nM; in data set [4], 23 nM; in data set [5] it was 7 nM; in data set [6] it was above 10000 nM.
For `Brc1cc(Br)cc(CNc2nccc(-c3ccc4c(c3)OCO4)n2)c1`, the concentration for half-maximal inhibition (IC50) came out at 11 nM in data set [1]; 40 nM in data set [2]; 13 nM in data set [3]; 41 nM in data set [4]; 18 nM in [5]; 70 nM in data set [7]. Further, the IC50 in data set [8] turned out to be 9 nM.
Regarding `Clc1ccc(CNc2nccc(-c3ccc4cn[nH]c4c3)n2)cc1Cl`, the IC50 was found to be 169 nM in data set [1]; 5820 nM in data set [2]; 183 nM in data set [3]; 429 nM in data set [4]; 599 nM in data set [5]; 1640 nM in [7]. In [8], this compound yielded an IC50 of 123 nM.
For `FC(F)(F)c1cc(Br)cc(Nc2nccc(-c3ccc4c(c3)OCO4)n2)c1`, the IC50 in data set [1] stood at 107 nM; in data set [2] it was 130 nM; in data set [3] it was 102 nM; in [4], 345 nM; in data set [5] it was 137 nM; in data set [7], 520 nM. In data set [8], inhibition was half-maximal at 86 nM (IC50).
